Structures are written as SMILES.

T1 sequence (Q01718 whole entry): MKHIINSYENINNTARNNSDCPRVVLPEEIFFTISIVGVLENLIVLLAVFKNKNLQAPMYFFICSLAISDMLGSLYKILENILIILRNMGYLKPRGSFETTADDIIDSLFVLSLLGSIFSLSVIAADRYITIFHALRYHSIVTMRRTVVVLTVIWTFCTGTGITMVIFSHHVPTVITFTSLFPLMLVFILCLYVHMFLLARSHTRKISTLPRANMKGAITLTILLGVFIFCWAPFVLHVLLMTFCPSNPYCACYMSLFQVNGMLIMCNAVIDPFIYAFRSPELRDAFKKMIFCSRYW
T1 sequence (Q8TCY5 whole entry partner): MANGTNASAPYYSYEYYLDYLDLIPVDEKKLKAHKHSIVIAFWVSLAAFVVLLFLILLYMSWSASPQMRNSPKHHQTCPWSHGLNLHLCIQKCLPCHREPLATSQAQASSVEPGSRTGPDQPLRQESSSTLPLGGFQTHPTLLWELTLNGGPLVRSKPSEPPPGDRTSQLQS

The assay addresses T1, human MC2R (Homo sapiens, UniProt Q01718).
T1 construct: host or cells: GeneBLAzer MC2R-CRE-bla CHO-K1 cells
In words: Measurement of human MC2R inhibitory activity using intracellular cAMP concentration as an indicator. The assay is classed as cell-based. Particulars: test compound at 1 µM; GeneBLAzer MC2R-CRE-bla CHO-K1 cells; ACTH (Human 1-24) final concentration 3 pM; intracellular cAMP by HTRF; read-out: MC2R inhibition rate (% of inhibition). Here is the method:
Experimental Example 1: Measurement of human MC2R inhibitory activity using intracellular cAMP concentration as an indicator
GeneBLAzer MC2R-CRE-bla CHO-K1 cells (Thermo Fisher Scientific) that had been cryopreserved in advance were thawed and suspended in a medium [Dulbecco's Modified Eagle Medium (Thermo Fisher Scientific) containing fetal bovine serum (10% (v/v), HyClone Laboratories), Non-Essential Amino Acids Solution (1/100 (w/w), Thermo Fisher Scientific), HEPES (25 mM, Thermo Fisher Scientific), Penicillin/Streptomycin (1/100 (w/w), Fujifilm Wako)]. After centrifuging the cell suspension, the supernatant was removed, the cells were suspended in D-PBS(-) (Fujifilm Wako), and the supernatant was removed again after centrifugation. The cells were resuspended in an assay buffer [Hank's Balanced Salt Solution (Thermo Fisher Scientific) containing HEPES pH 7.5 (10 mM, Thermo Fisher Scientific), fatty acid-free bovine serum albumin (0.01% (w/v), Sigma), IBMX (500 µM, Fujifilm Wako)] and added to a 384-well white plate (Greiner) at 1,500 cells/well. Then, the test compound prepared using the assay buffer was added, and after standing for 20 min, an assay buffer containing ACTH (Human 1-24) (Peptide Institute) was added (ACTH final concentration, 3 pM). After standing at room temperature for 30 min, the intracellular cAMP level was measured using cAMP Gs HiRange kit HTRF (PerkinElmer). The inhibition rate (%) of the compound against MC2R was calculated using the following formula. Inhibition rate (%) = […] [formula] • A: cAMP concentration calculated from wells containing 3 pM ACTH (1-24) • B: cAMP concentration calculated from wells without addition of 3 pM ACTH (1-24) • C: cAMP concentration calculated from wells containing 3 pM ACTH (1-24) and test compound at concentration determined in advance
(In TR-FRET formats the signal depends on donor and acceptor labels being close together.)
For the compound `CCOc1ncccc1-c1ccc(N2C[C@H]3CN(c4ccc(Cl)cc4C(F)(F)F)C(=O)N3C[C@H]2CC)c(C(=O)NC[C@H]2CCN2C(=O)OC(C)(C)C)n1` [Example 43, tert-butyl (2R)-2-[[[3-[(6R,8aS)-2-[4-chloro-2-(trifluoromethyl)phenyl]-6-ethyl-3-oxo-5,6,8,8a-tetrahydro-1H-imidazo[1,5-a]pyrazin-7-yl]-6-(2-ethoxypyridin-3-yl)pyridine-2-carbonyl]amino]methyl]azetidine-1-carboxylate], the inhibition at 1 µM turned out to be 100%.
As for `CCOc1ncccc1-c1ccc(N2C[C@H]3CN(c4ccc(Cl)cc4C(F)(F)F)C(=O)N3C[C@H]2CC)c(C(=O)NC[C@H]2CCN2)n1` [Example 44, 3-[(6R,8aS)-2-[4-chloro-2-(trifluoromethyl)phenyl]-6-ethyl-3-oxo-5,6,8,8a-tetrahydro-1H-imidazo[1,5-a]pyrazin-7-yl]-N-[[(2R)-azetidin-2-yl]methyl]-6-(2-ethoxypyridin-3-yl)pyridine-2-carboxamide], the figure is 100%.
With `CCOc1ncccc1-c1ccc(N2C[C@H]3CN(c4ccc(Cl)cc4C(F)(F)F)C(=O)N3C[C@H]2CC)c(C(=O)NC[C@@H]2CCN2C(=O)OC(C)(C)C)n1` [Example 45, tert-butyl (2S)-2-[[[3-[(6R,8aS)-2-[4-chloro-2-(trifluoromethyl)phenyl]-6-ethyl-3-oxo-5,6,8,8a-tetrahydro-1H-imidazo[1,5-a]pyrazin-7-yl]-6-(2-ethoxypyridin-3-yl)pyridine-2-carbonyl]amino]methyl]azetidine-1-carboxylate] the figure was 100%.
With `CCOc1ncccc1-c1ccc(N2C[C@H]3CN(c4ccc(Cl)cc4C(F)(F)F)C(=O)N3C[C@H]2CC)c(C(=O)NC[C@@H]2CCN2)n1` [Example 46, 3-[(6R,8aS)-2-[4-chloro-2-(trifluoromethyl)phenyl]-6-ethyl-3-oxo-5,6,8,8a-tetrahydro-1H-imidazo[1,5-a]pyrazin-7-yl]-N-[[(2S)-azetidin-2-yl]methyl]-6-(2-ethoxypyridin-3-yl)pyridine-2-carboxamide] the figure was 100%.
Consider `CCOc1ncccc1-c1ccc(N2C[C@H]3CN(c4ccc(Cl)cc4C(F)(F)F)C(=O)N3C[C@H]2CC)c(C(=O)N[C@H]2CCNC2=O)n1` [Example 48, 3-[(6R,8aS)-2-[4-chloro-2-(trifluoromethyl)phenyl]-6-ethyl-3-oxo-5,6,8,8a-tetrahydro-1H-imidazo[1,5-a]pyrazin-7-yl]-6-(2-ethoxypyridin-3-yl)-N-[(3S)-2-oxopyrrolidin-3-yl]pyridine-2-carboxamide], for which the inhibition at 1 µM is 100%.
As to `CCOc1ncccc1-c1ccc(N2C[C@H]3CN(c4ccc(Cl)cc4C(F)(F)F)C(=O)N3C[C@H]2CC)c(C(=O)N[C@H]2CC(=O)N(C)C2)n1` [Example 50, 3-[(6R,8aS)-2-[4-chloro-2-(trifluoromethyl)phenyl]-6-ethyl-3-oxo-5,6,8,8a-tetrahydro-1H-imidazo[1,5-a]pyrazin-7-yl]-6-(2-ethoxypyridin-3-yl)-N-[(3S)-1-methyl-5-oxopyrrolidin-3-yl]pyridine-2-carboxamide], the inhibition at 1 µM came out at 100%.
As for `CCOc1ncccc1-c1ccc(N2C[C@H]3CN(c4ccc(F)cc4C(F)(F)F)C(=O)N3C[C@H]2CC)c(C(=O)N[C@H]2CNC(=O)C2)n1` [Example 51, 3-[(6R,8aS)-6-ethyl-2-[4-fluoro-2-(trifluoromethyl)phenyl]-3-oxo-5,6,8,8a-tetrahydro-1H-imidazo[1,5-a]pyrazin-7-yl]-6-(2-ethoxypyridin-3-yl)-N-[(3R)-5-oxopyrrolidin-3-yl]pyridine-2-carboxamide], the figure is 100%; as for `CCOc1ncccc1-c1ccc(N2C[C@H]3CN(c4ccc(F)cc4C(F)(F)F)C(=O)N3C[C@H]2CC)c(C(=O)N[C@@H]2CC(=O)N(C)C2)n1` [Example 52, 3-[(6R,8aS)-6-ethyl-2-[4-fluoro-2-(trifluoromethyl)phenyl]-3-oxo-5,6,8,8a-tetrahydro-1H-imidazo[1,5-a]pyrazin-7-yl]-6-(2-ethoxypyridin-3-yl)-N-[(3R)-1-methyl-5-oxopyrrolidin-3-yl]pyridine-2-carboxamide], 100%; as for `CCOc1ncccc1-c1ccc(N2C[C@H]3CN(c4ccc(Cl)cc4C#N)C(=O)N3C[C@H]2CC)c(C(=O)N[C@H]2CNC(=O)C2)n1` [Example 53, 3-[(6R,8aS)-2-(4-chloro-2-cyanophenyl)-6-ethyl-3-oxo-5,6,8,8a-tetrahydro-1H-imidazo[1,5-a]pyrazin-7-yl]-6-(2-ethoxypyridin-3-yl)-N-[(3R)-5-oxopyrrolidin-3-yl]pyridine-2-carboxamide], 100%.
For `CCOc1ncccc1-c1ccc(N2C[C@H]3CN(c4ccc(Cl)cc4C#N)C(=O)N3C[C@H]2CC)c(C(=O)N[C@@H]2CC(=O)N(C)C2)n1` [Example 54, 3-[(6R,8aS)-2-(4-chloro-2-cyanophenyl)-6-ethyl-3-oxo-5,6,8,8a-tetrahydro-1H-imidazo[1,5-a]pyrazin-7-yl]-6-(2-ethoxypyridin-3-yl)-N-[(3R)-1-methyl-5-oxopyrrolidin-3-yl]pyridine-2-carboxamide], the inhibition at 1 µM came to 100%.
With `CCOc1ncccc1-c1ccc(N2C[C@H]3CN(c4ccc(F)cc4C#N)C(=O)N3C[C@H]2CC)c(C(=O)N[C@H]2CNC(=O)C2)n1` [Example 55, 3-[(6R,8aS)-2-(2-cyano-4-fluorophenyl)-6-ethyl-3-oxo-5,6,8,8a-tetrahydro-1H-imidazo[1,5-a]pyrazin-7-yl]-6-(2-ethoxypyridin-3-yl)-N-[(3R)-5-oxopyrrolidin-3-yl]pyridine-2-carboxamide] the figure was 100%; with `CCOc1ncccc1-c1ccc(N2C[C@H]3CN(c4ccc(C(F)(F)F)cc4C#N)C(=O)N3C[C@H]2CC)c(C(=O)N[C@H]2CNC(=O)C2)n1` [Example 56, 3-[(6R,8aS)-2-[2-cyano-4-(trifluoromethyl)phenyl]-6-ethyl-3-oxo-5,6,8,8a-tetrahydro-1H-imidazo[1,5-a]pyrazin-7-yl]-6-(2-ethoxypyridin-3-yl)-N-[(3R)-5-oxopyrrolidin-3-yl]pyridine-2-carboxamide], 100%.
With `CCOc1ncccc1-c1ccc(N2C[C@H]3CN(c4ccc(C(F)(F)F)cc4C#N)C(=O)N3C[C@H]2CC)c(C(=O)N[C@@H]2CC(=O)N(C)C2)n1` [Example 57, 3-[(6R,8aS)-2-[2-cyano-4-(trifluoromethyl)phenyl]-6-ethyl-3-oxo-5,6,8,8a-tetrahydro-1H-imidazo[1,5-a]pyrazin-7-yl]-6-(2-ethoxypyridin-3-yl)-N-[(3R)-1-methyl-5-oxopyrrolidin-3-yl]pyridine-2-carboxamide] the figure was 100%.
With `CCOc1ncccc1-c1ccc(N2C[C@H]3CN(c4ccc(F)cc4C#N)C(=O)N3C[C@H]2CC)c(C(=O)N[C@@H]2CC(=O)N(C)C2)n1` [Example 58, 3-[(6R,8aS)-2-(2-cyano-4-fluorophenyl)-6-ethyl-3-oxo-5,6,8,8a-tetrahydro-1H-imidazo[1,5-a]pyrazin-7-yl]-6-(2-ethoxypyridin-3-yl)-N-[(3R)-1-methyl-5-oxopyrrolidin-3-yl]pyridine-2-carboxamide] the figure was 100%; with `CCOc1ncccc1-c1ccc(N2C[C@H]3CN(C4(C(F)(F)F)CC4)C(=O)N3C[C@H]2CC)c(C(=O)N[C@@H]2CC(=O)N(C)C2)n1` [Example 59, 3-[(6R,8aS)-6-ethyl-3-oxo-2-[1-(trifluoromethyl)cyclopropyl]-5,6,8,8a-tetrahydro-1H-imidazo[1,5-a]pyrazin-7-yl]-6-(2-ethoxy-3-pyridinyl)-N-[(3R)-1-methyl-5-oxopyrrolidin-3-yl]pyridine-2-carboxamide], 87%; with `CCOc1ncccc1-c1ccc(N2C[C@H]3CN(c4ccc(Cl)cc4C(F)(F)F)C(=O)N3C[C@H]2C)c(C(=O)N[C@@H]2CC(=O)N(C)C2)n1` [Example 60, 3-[(6R,8aS)-2-[4-chloro-2-(trifluoromethyl)phenyl]-6-methyl-3-oxo-5,6,8,8a-tetrahydro-1H-imidazo[1,5-a]pyrazin-7-yl]-6-(2-ethoxy-3-pyridinyl)-N-[(3R)-1-methyl-5-oxopyrrolidin-3-yl]pyridine-2-carboxamide], 97%.
On to `COc1ncccc1-c1ccc(N2C[C@H]3CN(c4ccc(Cl)cc4C(F)(F)F)C(=O)N3C[C@H]2C)c(C(=O)N[C@@H]2CC(=O)N(C)C2)n1` [Example 61, 3-[(6R,8aS)-2-[4-chloro-2-(trifluoromethyl)phenyl]-6-methyl-3-oxo-5,6,8,8a-tetrahydro-1H-imidazo[1,5-a]pyrazin-7-yl]-6-(2-methoxy-3-pyridinyl)-N-[(3R)-1-methyl-5-oxopyrrolidin-3-yl]pyridine-2-carboxamide], for which the inhibition at 1 µM is 97%.

As usually defined, the inhibition is how much of the control response was suppressed.

These data come from patent EP4714953A1, “MELANOCORTIN 2-TYPE RECEPTOR ANTAGONIST” (Scohia Pharma, Inc., priority 2023, dated 2024).
